We go through 13 compounds from ChEMBL document CHEMBL1201862, “PubChem BioAssay data set” (2004).

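Where inhibition never reached the appropriate level, the endpoint shown equals the highest concentration tested. Otherwise, values were interpolated linearly from a five-concentration, 48-hour dose response in 96-well plates. At the GI50, growth is halved.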 Activity calls are given as the source filed them. No stated cut-off is given here; in the data, active = GI50 up to about 1.1 µM and inactive = higher.

Test systems include SN12C; SNB-75; SR; LOX IMVI; OVCAR-5; M14; SW-620; SK-MEL-2; UACC-257; HCT-15; K562; U-251; A549; KM12; OVCAR-4; NCI-H226; MDA-MB-435; Hs-578T; SNB-19.
What all share (assay): NCI anticancer screen, dose series, 48 h

For the compound `CN(C)CCSc1cccc(-c2cc(-c3cccc(SCCN(C)C)c3)nc(SCCN(C)C)n2)c1`, the GI50 in the experiment with SN12C is 12.1 µM (inactive); in the experiment on SNB-75 it was 2.95 µM (inactive); in the experiment on SR, 1.82 µM (inactive); with LOX IMVI, 1.64 µM (inactive); in the experiment on OVCAR-5, 6.79 µM (inactive); with M14, 1.62 µM (inactive). For the same compound, the GI50 is 1.87 µM (inactive) in the experiment on SW-620; 7.96 µM (inactive) in the experiment on SK-MEL-2; 1.59 µM (inactive) with UACC-257; 2.18 µM in the experiment with HCT-15; 1.49 µM (inactive) with K562; 1.91 µM (inactive) with U-251. Also, the GI50 in the experiment on A549 was 1.71 µM (inactive); in the experiment with KM12 it was 1.66 µM (inactive); with OVCAR-4, 1.67 µM (inactive).
Regarding `CCN(CC)Cc1cc(Nc2c3ccccc3nc3c2[nH]c2ccccc23)cc(CN(CC)CC)c1O`, the GI50 in the experiment with SN12C is 0.412 µM (active); in the experiment with NCI-H226, 2.45 µM (inactive); in the experiment on SNB-75, 1.22 µM (inactive); with OVCAR-5, 2.01 µM (inactive); with M14, 0.303 µM (active); in the experiment on SW-620 it was 0.266 µM (active). For the same compound, the GI50 in the experiment with MDA-MB-435 was 0.701 µM (active); with SK-MEL-2 it was 1.62 µM (inactive); with UACC-257, 1.42 µM (inactive); with HCT-15 it was 0.684 µM; with K562, 0.631 µM (active); in the experiment on U-251, 0.513 µM (active). Moreover, the GI50 in the experiment with A549 was 0.566 µM (active); in the experiment on KM12, 0.552 µM (active); in the experiment on OVCAR-4, 0.468 µM (active); with Hs-578T, 2.15 µM (inactive); in the experiment with SNB-19, 1.21 µM (inactive).
As to `O=C(COc1ccc(OCC(=O)N2C(=O)CS/C2=N\c2ccccc2)cc1)N1C(=O)CS/C1=N\c1ccccc1`, the GI50 with SN12C was 24.8 µM (inactive); in the experiment on NCI-H226 it was 26.5 µM (inactive); in the experiment on SNB-75, 90.4 µM (inactive); with OVCAR-5, 12.7 µM (inactive); with M14 it was 18.6 µM (inactive); in the experiment with SW-620, 47.9 µM (inactive). The GI50 was 23.7 µM (inactive) with MDA-MB-435; 25.9 µM (inactive) in the experiment with SK-MEL-2; 23.7 µM (inactive) in the experiment on UACC-257; 28.1 µM in the experiment with HCT-15; 5.9 µM (inactive) in the experiment with K562; 31.8 µM (inactive) in the experiment with U-251. Besides, the GI50 in the experiment with A549 was 23.6 µM (inactive); in the experiment on KM12, 15.3 µM (inactive); in the experiment with OVCAR-4, 33.5 µM (inactive); with SNB-19 it was 31.6 µM (inactive).
On to `CN1C(=O)N(C)C2(CCN(CCCCCCF)CC2)C1=O`, for which the GI50 with SN12C, with NCI-H226, in the experiment with SNB-75, in the experiment with SR, in the experiment with LOX IMVI and in the experiment with OVCAR-5 was > 100 µM (inactive) throughout. Further, the GI50 in the experiment on M14 was > 100 µM (inactive); in the experiment with SW-620 it was > 100 µM (inactive); with MDA-MB-435, 26 µM (inactive); in the experiment with UACC-257, > 100 µM (inactive); in the experiment on HCT-15 it was more than 100 µM; with K562, > 100 µM (inactive). Further, the GI50 in the experiment with U-251, in the experiment with A549, in the experiment with KM12 and in the experiment on SNB-19 was > 100 µM (inactive) each time.
Turning to `Cc1nc2ccc(F)cc2c2c1CCN2c1ccc(Cl)cc1`, the GI50 is 11.8 µM (inactive) in the experiment with SN12C; 9.38 µM (inactive) with NCI-H226; 39.6 µM (inactive) in the experiment on SNB-75; 12.5 µM (inactive) with LOX IMVI; 33.9 µM (inactive) in the experiment with OVCAR-5; 8.85 µM (inactive) in the experiment on M14. Moreover, the GI50 was 11.3 µM (inactive) with SW-620; 6.64 µM (inactive) in the experiment on MDA-MB-435; 18.6 µM (inactive) with SK-MEL-2; 3.51 µM (inactive) with UACC-257; 13.1 µM with HCT-15; 2.26 µM (inactive) with K562. The GI50 is 9.1 µM (inactive) in the experiment with U-251; 17.2 µM (inactive) in the experiment with A549; 13.4 µM (inactive) in the experiment with OVCAR-4; 27.6 µM (inactive) in the experiment on Hs-578T; 36.6 µM (inactive) in the experiment on SNB-19.
With `CC(=O)N1[C@H](C(=O)O)CS[C@H]1c1ccncc1`, the GI50 in the experiment on SN12C, in the experiment with NCI-H226, in the experiment with SNB-75, in the experiment on SR, in the experiment with LOX IMVI and in the experiment on OVCAR-5 was > 100 µM (inactive) throughout. For the same compound, the GI50 in the experiment with M14 was > 100 µM (inactive); with SW-620 it was > 100 µM (inactive); in the experiment on UACC-257, > 100 µM (inactive); with HCT-15, more than 100 µM; with K562 it was > 100 µM (inactive); in the experiment on A549 it was > 100 µM (inactive). Besides, the GI50 in the experiment with KM12, in the experiment on OVCAR-4 and with SNB-19 was > 100 µM (inactive) throughout.
Take `COC(=O)c1c(C)cccc1/C=C1/Cc2c(C)cccc2C1=O`: the GI50 with SN12C was > 100 µM (inactive); in the experiment on NCI-H226, > 100 µM (inactive); in the experiment on SNB-75, > 100 µM (inactive); with LOX IMVI it was 20.5 µM (inactive); with OVCAR-5, > 100 µM (inactive); in the experiment with SW-620, > 100 µM (inactive). For the same compound, the GI50 with MDA-MB-435 was > 100 µM (inactive); with UACC-257, 3.1 µM (inactive); in the experiment on HCT-15, more than 100 µM; in the experiment with U-251 it was 90.6 µM (inactive); with A549 it was > 100 µM (inactive); with KM12, > 100 µM (inactive). Also, the GI50 was > 100 µM (inactive) with OVCAR-4 and 32.6 µM (inactive) in the experiment with Hs-578T.
On to `COc1cccc(/C=C2\S/C(=N/Nc3nc(C)c(C)s3)NC2=O)c1O`, for which the GI50 is > 100 µM (inactive) in the experiment on SN12C; > 100 µM (inactive) in the experiment on NCI-H226; > 100 µM (inactive) in the experiment with SNB-75; 95.7 µM (inactive) in the experiment with LOX IMVI; > 100 µM (inactive) in the experiment on OVCAR-5; > 100 µM (inactive) in the experiment with M14. Further, the GI50 with SW-620 is > 100 µM (inactive); in the experiment on MDA-MB-435, > 100 µM (inactive); in the experiment on SK-MEL-2 it was > 100 µM (inactive); in the experiment on UACC-257, > 100 µM (inactive); in the experiment with HCT-15, more than 100 µM; in the experiment on U-251 it was > 100 µM (inactive). Further, the GI50 with A549, with KM12, with OVCAR-4 and in the experiment with SNB-19 was > 100 µM (inactive) each time.
With `NC(=O)/C(=N\NC(=O)c1cc2ccccc2cc1O)C1C(=O)N(c2ccccc2)N=C1N` (configuration not stated), the GI50 was 40.5 µM (inactive) in the experiment on SN12C; 24.2 µM (inactive) in the experiment on NCI-H226; 20.5 µM (inactive) in the experiment with SNB-75; > 100 µM (inactive) in the experiment on LOX IMVI; 22.2 µM (inactive) with OVCAR-5; 31.5 µM (inactive) in the experiment with M14. Besides, the GI50 is 37.2 µM (inactive) with SW-620; 21.7 µM (inactive) in the experiment on SK-MEL-2; 23.4 µM (inactive) in the experiment on UACC-257; 30.3 µM (inactive) with U-251; 30.6 µM (inactive) in the experiment on A549; 35.6 µM (inactive) in the experiment with KM12. Moreover, the GI50 in the experiment with OVCAR-4 is 22.6 µM (inactive); in the experiment on SNB-19 it was 65.3 µM (inactive).
On to `COc1cccc(NC(=O)CC(=O)N2N=C(N3c4ccccc4Sc4ccccc43)CC2c2ccccc2)c1` (configuration not stated), for which the GI50 in the experiment with SN12C, in the experiment on NCI-H226, in the experiment with SNB-75, with SR, in the experiment with LOX IMVI and in the experiment with OVCAR-5 was > 100 µM (inactive) each time. Besides, the GI50 is > 100 µM (inactive) in the experiment on M14; > 100 µM (inactive) in the experiment with SW-620; > 100 µM (inactive) in the experiment on UACC-257; more than 100 µM in the experiment with HCT-15; > 100 µM (inactive) in the experiment on U-251; > 100 µM (inactive) in the experiment with A549. In addition, the GI50 in the experiment with KM12, in the experiment on OVCAR-4 and in the experiment with SNB-19 was > 100 µM (inactive) each time.
For the compound `O=C(Nc1cc([N+](=O)[O-])cc([N+](=O)[O-])c1)OC1C2CCC1C1OC1C2` (configuration not stated), the GI50 with SNB-75 was 23.7 µM (inactive); in the experiment with OVCAR-5, > 50 µM (inactive); in the experiment on M14, > 50 µM (inactive); in the experiment with SW-620, > 50 µM (inactive); in the experiment with SK-MEL-2, > 50 µM (inactive); in the experiment with UACC-257, 32.4 µM (inactive). Moreover, the GI50 in the experiment on HCT-15 is more than 50 µM; in the experiment with K562, > 50 µM (inactive); with U-251 it was > 50 µM (inactive); in the experiment on A549, > 50 µM (inactive); in the experiment on KM12, 29.1 µM (inactive); with OVCAR-4, > 50 µM (inactive). Further, the GI50 in the experiment on SNB-19 is > 50 µM (inactive).
Consider `SC1=NC2=C(CSC/C2=C\c2ccccc2)C(c2ccccc2)N1` (configuration not stated), for which the GI50 with SN12C is 38.1 µM (inactive); in the experiment on NCI-H226, 56.4 µM (inactive); with SR it was 32.7 µM (inactive); with LOX IMVI it was 38.1 µM (inactive); with OVCAR-5, > 100 µM (inactive); in the experiment on M14, 54.1 µM (inactive). The GI50 in the experiment on SW-620 is 48.3 µM (inactive); with SK-MEL-2 it was 49.3 µM (inactive); in the experiment on UACC-257 it was 22.3 µM (inactive); with HCT-15 it was 41.7 µM; with K562, 30.3 µM (inactive); in the experiment with U-251, 35 µM (inactive). In addition, the GI50 with A549 is 38.5 µM (inactive); in the experiment with KM12 it was 41 µM (inactive); with OVCAR-4, > 100 µM (inactive); in the experiment on SNB-19 it was 39.6 µM (inactive).
With `CCSc1nc(-c2cccs2)nc2ccc(I)cc12`, the GI50 in the experiment on SN12C, in the experiment on NCI-H226, in the experiment on SNB-75, in the experiment on SR, in the experiment on LOX IMVI and in the experiment on OVCAR-5 was > 100 µM (inactive) in each case. Besides, the GI50 in the experiment with M14 was > 100 µM (inactive); with SW-620, > 100 µM (inactive); with MDA-MB-435, > 100 µM (inactive); in the experiment on SK-MEL-2 it was > 100 µM (inactive); in the experiment with UACC-257, > 100 µM (inactive); in the experiment with HCT-15, 89.9 µM. Besides, the GI50 was > 100 µM (inactive) with K562; > 100 µM (inactive) with U-251; > 100 µM (inactive) with A549; 72.8 µM (inactive) with KM12; > 100 µM (inactive) in the experiment with OVCAR-4; > 100 µM (inactive) with SNB-19.
